{"source": "patent US8993633B2", "about": "“Treatment of muscle disease characterized by insulin resistance” (Fate Therapeutics, (Canada) Inc., priority 2009, dated 2015)", "key": {"mdx mice [1]": {"system": "mdx mice", "assay": "Glycogen deposition by periodic acid Schiff staining in mdx skeletal muscle", "type": "in vivo, mouse", "details": "TA muscle of mdx mice, metformin treatment, PAS staining", "description": "(§1) Studies were conducted in which metformin was administered to 4-week old mdx mice followed by extensive biochemical and morphologic analysis. The 4-week age group coincides with the early muscle degeneration/regeneration cycle and as such tests the ability of metformin to limit the degeneration process that begins at 3-4 weeks of age in this murine model of DMD. Metformin delivery was accomplished with the use of osmotic pump technology (Alzet). Alzet osmotic pumps are produced in a variety of formats ideal for use in murine models. The pumps were preloaded with metformin and then surgically implanted in a subcutaneous position suitable for long-term delivery, i.e. mid-scapular region. The Alzet osmotic pump was loaded with a metformin concentration selected to deliver 100 mg/kg/body wt per day, per standard diabetic treatment regimes, at 28 days of continuous infusion (Misra 2008). A skilled person will appreciate that metformin could be given orally or by other routes of administration to humans but the osmotic pump is a convenient way to regulate administration over the 28 days of the murine model. Control animals were implanted with osmotic pumps containing saline. Given that metformin is an anti-hyperglycemic agent, blood glucose levels were measured. […]"}, "GLUT4": {"system": "GLUT4", "assay": "GLUT4 localization by immunohistochemistry in mdx skeletal muscle", "type": "in vivo, mouse", "description": "as §1, with “A skilled person will appreciate that metformin could be given orally or by other routes of administration to humans but the osmotic pump is a convenient way to regulate administration over the 28 days of the murine model. Control animals were implanted with osmotic pumps containing saline.” left out\nParaffin embedded muscles were section transversely (10 µm) and deparaffinized in descending alcohols, blocked with 3% BSA and permeabilized in 0.1% triton in PBS for 1 h at RT. […] Sections were then washed and mounted using fluorescence mounting medium (DAKO)."}, "mdx mice [2]": {"system": "mdx mice", "assay": "Monitoring of blood glucose and adverse health effects during drug treatment of mdx mice", "type": "in vivo, mouse", "details": "metformin 100 mg/kg/day, throughout drug treatment", "description": "(§2) Studies were conducted in which metformin was administered to 4-week old mdx mice followed by extensive biochemical and morphologic analysis. The 4-week age group coincides with the early muscle degeneration/regeneration cycle and as such tests the ability of metformin to limit the degeneration process that begins at 3-4 weeks of age in this murine model of DMD. Metformin delivery was accomplished with the use of osmotic pump technology (Alzet). Alzet osmotic pumps are produced in a variety of formats ideal for use in murine models. The pumps were preloaded with metformin and then surgically implanted in a subcutaneous position suitable for long-term delivery, i.e. mid-scapular region. The Alzet osmotic pump was loaded with a metformin concentration selected to deliver 100 mg/kg/body wt per day, per standard diabetic treatment regimes, at 28 days of continuous infusion (Misra 2008). A skilled person will appreciate that metformin could be given orally or by other routes of administration to humans but the osmotic pump is a convenient way to regulate administration over the 28 days of the murine model. Control animals were implanted with osmotic pumps containing saline. Given that metformin is an anti-hyperglycemic agent, blood glucose levels were measured."}, "mdx mice [3]": {"system": "mdx mice", "assay": "Rotorod test of motor performance in mdx mice", "type": "in vivo, mouse", "details": "mdx mice treated 28 days, by the 4th trial; 15 rpm start, 0.1 rpm/s acceleration", "description": "Metformin treated mdx-mice display improved motor performance compared to saline-treated mdx-mice. Mice (mdx) 3-4 weeks of age were treated with metformin or saline for 28 days according to the protocol described above. At the end of the treatment phase, a rotorod test was performed, which was repeated daily for 3 consecutive days. The mice were 7-8 weeks of age when tested, thus young adults. The initial rotorod speed for each trial was 15 rpm with gradual acceleration at a rate of 0.1 rpm per second. Mean fall latency time refers to the average amount of time the mice could run on the rotating rod (seconds). As soon as the animals fell from the rod, the time was stopped. The average value shown represents the average of each trial (1-4) performed for 3 consecutive days. The rotorod test is a behavioural test of motor coordination or performance and fatigue resistance or exercise tolerance, where the earlier time points are essentially an adaptation to the rotorod."}, "AKT": {"system": "AKT", "assay": "AKT kinase activity in skeletal muscle of treated mdx mice", "type": "in vivo, mouse", "details": "for increase in AKT kinase activity compared to mdx-S control: metformin 100 mg/kg/day by osmotic pump", "description": "as §2\n(§3) Wild-type (C57BL-10) and mdx mice (C57BL/10ScSn-DMD/^mdx) were purchased from Jackson Laboratories (Bar Harbour, Me.) and housed in the University of Ottawa Animal Care Facility. Mice aged 3-4 weeks (peak necrotic stage) were surgically implanted with an (Alzet) osmotic mini-pump containing metformin or insulin for 14 and 28 days. Animals were randomly assigned to experimental or control treatment groups. Depending on the experiment, Mdx mice either received 100 mg/kg/d of metformin (Aldrich) (mdx-M) or 0.75 U of insulin (Sigma) (mdx-I). […]\n(§4) Muscle samples were homogenized and quantified for protein concentration using Brafford Assay. […] Incorporation of radioactivity was counted using liquid scintillation counter. […]"}, "GSK-3β": {"system": "GSK-3β", "assay": "GSK-3β kinase activity in skeletal muscle of treated mdx mice", "type": "in vivo, mouse", "details": "for reduction of GSK-3β activity compared to mdx-S control: metformin 100 mg/kg/day by osmotic pump", "description": "as §2, §3, §4"}, "mdx mice [4]": {"system": "mdx mice", "assay": "Evans blue dye uptake (sarcolemmal integrity) in mdx muscle", "type": "in vivo, mouse", "details": "metformin-treated mdx, 28 days; untreated (MS) 42%", "description": "(§5) Wild-type (C57BL-10) and mdx mice (C57BL/10ScSn-DMD/^mdx) were purchased from Jackson Laboratories (Bar Harbour, Me.) and housed in the University of Ottawa Animal Care Facility. Mice aged 3-4 weeks (peak necrotic stage) were surgically implanted with an (Alzet) osmotic mini-pump containing metformin or insulin for 14 and 28 days. Animals were randomly assigned to experimental or control treatment groups. Depending on the experiment, Mdx mice either received 100 mg/kg/d of metformin (Aldrich) (mdx-M) or 0.75 U of insulin (Sigma) (mdx-I). Drug concentrations were based on the effective dose range used in diabetic mouse models (Bailey and Puah, 1986; Cohen et al., 2004)\nTo measure sarcolemmal integrity, treated and untreated mdx mice were injected intravenously through the dorsal tail vein with 50 ul/10 g of 1% Evans Blue Dye (EBD, Sigma) in sterilized phosphate-buffered saline (PBS 7.4). Skeletal muscle was harvested 6-8 hrs post-injection and prepared for immunofluorescence as previously described. To visualize sarcolemmal membrane, EBD infiltrated fibers sections were incubated in anti-laminin (Sigma) at 4° C. overnight and then mounted in fluorescent mounting medium (DAKO)."}, "[5]": {"details": "cited from earlier work"}, "DGC": {"system": "DGC", "assay": "DGC component and utrophin protein levels and sarcolemmal distribution in mdx muscle", "type": "in vivo, mouse", "description": "as §2, §5\n(§6) Control groups were surgically implanted with the mini-pump containing saline (wild type [WT-S], mdx-S). Following completion of drug treatment, animals were sacrificed by cervical dislocation and skeletal muscles (tibialis anterior TA, diaphragm DIA, gastrocnemius Gastro, and Soleus) were harvested. For analysis of biochemistry, skeletal muscles were snap frozen in liquid nitrogen. For preparation of paraffin sections skeletal muscles were fixed in formalin.\nParaffin embedded muscles were section transversely (10 µm) and deparaffinized in descending alcohols, blocked with 3% BSA and permeabilized in 0.1% triton in PBS for 1 h at RT. Sections were then incubated in primary antibodies against GLUT4 (Chemicon), Laminin (Sigma), Utrophin, 13-Dystroglycan and γ-Sarcoglycan were purchased from Vector Laboratories. In order to amplify primary antibody signal the avidin/biotin complex technique was performed on muscle sections. As well primary mouse antibodies were diluted in M.O.M diluent (M.O.M. Basic Kit, Vector Laboratories). In brief, sections were incubated with primary antibody overnight at 4° C. then incubated in biotinylated secondary antibody for 30 mins at RT, followed by incubation in FITC-streptoavidin conjugated secondary antibody (Molecular Probes) for 1 h at RT. Sections were then washed and mounted using fluorescence mounting medium (DAKO).\nMuscle samples were homogenized, lyzed and quantified for protein concentration using Brafford Assay. Equal concentrations of protein samples were resolved by 6-8% SDS-PAGE and transferred to nitrocellulose membranes. Primary antibodies against IRS, IRS^y941, IRS^S307, anti-MHC (clone MF20) were used at a dilution of 1:500. Rabbit polyclonal antibodies were detected using horseradish peroxidase-conjugated anti-rabbit at dilution of 1:5000. Immunoblots were developed using with Supersignal West Pico Chemiluminescence substrate."}, "mdx mice [6]": {"system": "mdx mice", "assay": "H&E myofiber pathology and morphometry in mdx skeletal muscle", "type": "in vivo, mouse", "details": "for proportion of smaller myofibers (CSA<1500 μm^2): mdx-M", "description": "as §2, §5, §6\nMuscle sections were rehydrated in xylene followed by descending alcohols (100%, 95%, 80%), incubated in Shandon Instant Hematoxylin (Fisher Scientific) for 3 mins, washed 1 min, incubated in Eosin (Fisher Scientific) for 3 mins and then dehydrated in ascending alcohols followed by incubation in xylene. Stained sections were mounted with permount (Fisher Scientific). Quantification of morphometric parameters was performed on ˜1000 fibers per muscle."}, "AMPK": {"system": "AMPK", "assay": "AMPK kinase activity in skeletal muscle of treated mdx mice", "type": "in vivo, mouse", "details": "metformin 100 mg/kg/day by osmotic pump, 28 days", "description": "as §1"}, "[7]": {"details": "immunoblot, compared to mdx-Saline control"}, "[8]": {"details": "immunohistochemistry, mdx myofibers"}, "[9]": {"details": "28-day insulin delivery (0.75 U)"}}, "data": [{"compound": "CN(C)C(=N)NC(=N)N", "note": "[Metformin, N,N-dimethylimidodicarbonimidicdiamide]", "values": [{"measurement": "skeletal muscle glycogen content", "setting": "mdx mice [1]", "value": "complete normalization of glycogen content"}, {"measurement": "GLUT4 localization", "setting": "GLUT4; TA muscle of mdx mice, metformin treatment", "value": "restoration of GLUT4 protein to that observed in wild-type skeletal muscle"}, {"measurement": "hypoglycemia or adverse health effects", "setting": "mdx mice [2]", "value": "no evidence of hypoglycemia or adverse health effects"}, {"measurement": "rotorod running time (fall latency)", "setting": "mdx mice [3]", "value": "significant improvement in running time"}, {"measurement": "increase in AKT kinase activity compared to mdx-S control", "setting": "AKT; DIA muscle", "value": "~80", "unit": "%"}, {"measurement": "increase in AKT kinase activity compared to mdx-S control", "setting": "AKT; TA muscle", "value": 83, "unit": "%"}, {"measurement": "reduction of GSK-3β activity compared to mdx-S control", "setting": "GSK-3β; DIA muscle", "value": 66, "unit": "%"}, {"measurement": "reduction of GSK-3β activity compared to mdx-S control", "setting": "GSK-3β; TA muscle", "value": 31, "unit": "%"}, {"measurement": "myofibers positively stained for EBD", "setting": "mdx mice [4]", "value": 22, "unit": "%"}, {"measurement": "incidence of lactic acidosis", "setting": "[5]; patients", "value": "about 0.03 cases per 1000 patients years of treatment"}, {"measurement": "mortality risk of lactic acidosis", "setting": "[5]; patients", "value": "about 0.015 per 1000 patient-years"}, {"measurement": "gastrointestinal adverse effects, notably diarrhea", "setting": "[5]; remit when the dosage is reduced", "value": "less than 20 % of patients"}, {"measurement": "utrophin protein levels", "setting": "DGC; gastrocnemius, compared to mdx-Saline control", "value": "increased"}, {"measurement": "β-dystroglycan protein expression", "setting": "DGC; [7]", "value": "increased"}, {"measurement": "γ-sarcoglycan protein expression", "setting": "DGC; [7]", "value": "increased"}, {"measurement": "sarcolemmal distribution of β-dystroglycan", "setting": "DGC; [8]", "value": "notable increase"}, {"measurement": "sarcolemmal distribution of γ-sarcoglycan", "setting": "DGC; [8]", "value": "notable increase"}, {"measurement": "utrophin along the extrasynaptic sarcolemma", "setting": "DGC; [8]", "value": "robust increase"}, {"measurement": "proportion of smaller myofibers (CSA<1500 μm^2)", "setting": "mdx mice [6]; DIA, untreated 38%", "value": 23, "unit": "%"}, {"measurement": "focal necrosis", "setting": "mdx mice [6]; TA, DIA, gastrocnemius and soleus of mdx mice, 28-day metformin vs saline", "value": "significant decline in the focal necrosis"}, {"measurement": "proportion of smaller myofibers (CSA<1500 μm^2)", "setting": "mdx mice [6]; TA, untreated 22%", "value": 14, "unit": "%"}, {"measurement": "fibers displaying central nuclei", "setting": "mdx mice [6]; mdx-M fibers after 28 days metformin, untreated mdx-S 55%", "value": "~38", "unit": "%"}, {"measurement": "elevation in AMPK kinase activity over baseline levels in mdx-S control", "setting": "AMPK; DIA muscle", "value": 55, "unit": "%"}, {"measurement": "elevation in AMPK kinase activity over baseline levels in mdx-S control", "setting": "AMPK; TA muscle", "value": 75, "unit": "%"}]}, {"compound": "insulin: insulin (Sigma), 0.75 U delivered by osmotic mini-pump to mdx mice (mdx-I)", "values": [{"measurement": "GLUT4 localization", "setting": "GLUT4; mdx mice following insulin treatment", "value": "remained localized in a perinuclear domain"}, {"measurement": "AKT kinase activity", "setting": "AKT; [9]", "value": "no significant change"}, {"measurement": "GSK3β kinase activity", "setting": "GSK-3β; [9]", "value": "only marginal changes"}, {"measurement": "fiber size variability and protection against degeneration (H&E)", "setting": "mdx mice [6]; TA and DIA fibers of mdx-I", "value": "no reduction in fiber size variability and protection against degeneration"}, {"measurement": "number of centrally located nuclei", "setting": "mdx mice [6]; mdx-I vs mdx-S", "value": "remained comparable"}, {"measurement": "fiber size distribution (morphometric analysis)", "setting": "mdx mice [6]; mdx-I, in particular the DIA", "value": "no overall change"}]}]}
